This passage reports Ki results from PubChem BioAssay AID493040 (Abbott Labs, 2011).

Active and inactive are the calls of the source. How the calls were made is not given here.

Assay in all cases: PubChem AID 493040
Experiment [1] concerns the target Epidermal growth factor receptor (Homo sapiens) (UniProt P00533). Particulars: kinase panel binding, pKi; EGFR.
Experiment [2] deals with Rho-associated protein kinase 2 (Homo sapiens) (UniProt O75116). The settings on record: kinase panel binding, pKi; ROCK2.
Experiment [3] concerns the target Serine/threonine-protein kinase PLK3 (Homo sapiens) (UniProt Q9H4B4). Particulars: kinase panel binding, pKi.
For experiment [4], the target named is Serine/threonine-protein kinase Sgk2 (Homo sapiens) (UniProt Q9HBY8). The settings on record: kinase panel binding, pKi; SGK.
Experiment [5] concerns the target Cyclin-dependent kinase 2 (Homo sapiens) (UniProt P24941). Particulars: kinase panel binding, pKi; CDK2.
Experiment [6] has as its target Cyclin-dependent kinase 5 (Homo sapiens) (UniProt Q00535). Particulars: kinase panel binding, pKi; CDK5.
The target of experiment [7] is Mitogen-activated protein kinase 14 (Homo sapiens) (UniProt Q16539). The settings on record: kinase panel binding, pKi; MAPK14.
Experiment [8] has as its target Cell division cycle 7-related protein kinase (Homo sapiens) (UniProt O00311). Particulars: kinase panel binding, pKi; CDC7.

Rho-associated protein kinase 2 (Homo sapiens), sequence (O75116 whole entry, looked up): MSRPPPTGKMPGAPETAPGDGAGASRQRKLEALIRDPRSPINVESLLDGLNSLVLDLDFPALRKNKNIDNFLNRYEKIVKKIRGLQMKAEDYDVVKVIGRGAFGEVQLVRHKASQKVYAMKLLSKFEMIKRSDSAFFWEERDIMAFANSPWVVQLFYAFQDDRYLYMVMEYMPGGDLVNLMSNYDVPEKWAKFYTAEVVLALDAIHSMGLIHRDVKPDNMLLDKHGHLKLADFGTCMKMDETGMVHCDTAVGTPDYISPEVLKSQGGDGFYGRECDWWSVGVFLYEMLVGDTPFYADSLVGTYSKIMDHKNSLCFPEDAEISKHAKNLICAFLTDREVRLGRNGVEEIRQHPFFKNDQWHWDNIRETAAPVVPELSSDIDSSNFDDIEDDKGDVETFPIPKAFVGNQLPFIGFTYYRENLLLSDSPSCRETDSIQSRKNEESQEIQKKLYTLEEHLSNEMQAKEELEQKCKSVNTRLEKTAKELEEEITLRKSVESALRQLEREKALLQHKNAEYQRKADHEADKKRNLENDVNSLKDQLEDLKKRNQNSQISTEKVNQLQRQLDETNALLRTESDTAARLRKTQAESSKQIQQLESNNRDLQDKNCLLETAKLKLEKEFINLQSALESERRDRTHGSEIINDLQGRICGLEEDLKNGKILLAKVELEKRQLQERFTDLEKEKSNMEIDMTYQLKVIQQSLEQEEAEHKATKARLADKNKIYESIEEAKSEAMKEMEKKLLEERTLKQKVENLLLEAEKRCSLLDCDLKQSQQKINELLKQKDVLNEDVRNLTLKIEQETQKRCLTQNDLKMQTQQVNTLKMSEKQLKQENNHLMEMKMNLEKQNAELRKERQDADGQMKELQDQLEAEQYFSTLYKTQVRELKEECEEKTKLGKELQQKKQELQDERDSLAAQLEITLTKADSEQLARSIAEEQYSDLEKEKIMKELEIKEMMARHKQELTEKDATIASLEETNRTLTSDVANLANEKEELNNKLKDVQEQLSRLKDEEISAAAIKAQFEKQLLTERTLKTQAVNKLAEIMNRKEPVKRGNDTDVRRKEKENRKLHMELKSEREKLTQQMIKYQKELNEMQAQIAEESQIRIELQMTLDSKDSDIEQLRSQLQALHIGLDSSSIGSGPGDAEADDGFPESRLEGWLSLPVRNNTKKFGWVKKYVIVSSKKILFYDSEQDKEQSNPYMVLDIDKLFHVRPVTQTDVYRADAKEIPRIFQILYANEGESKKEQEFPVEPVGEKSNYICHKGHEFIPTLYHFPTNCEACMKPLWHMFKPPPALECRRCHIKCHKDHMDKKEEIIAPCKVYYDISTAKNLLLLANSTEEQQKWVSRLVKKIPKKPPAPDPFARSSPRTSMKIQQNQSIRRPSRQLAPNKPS
Mitogen-activated protein kinase 14 (Homo sapiens), sequence (Q16539 whole entry, looked up): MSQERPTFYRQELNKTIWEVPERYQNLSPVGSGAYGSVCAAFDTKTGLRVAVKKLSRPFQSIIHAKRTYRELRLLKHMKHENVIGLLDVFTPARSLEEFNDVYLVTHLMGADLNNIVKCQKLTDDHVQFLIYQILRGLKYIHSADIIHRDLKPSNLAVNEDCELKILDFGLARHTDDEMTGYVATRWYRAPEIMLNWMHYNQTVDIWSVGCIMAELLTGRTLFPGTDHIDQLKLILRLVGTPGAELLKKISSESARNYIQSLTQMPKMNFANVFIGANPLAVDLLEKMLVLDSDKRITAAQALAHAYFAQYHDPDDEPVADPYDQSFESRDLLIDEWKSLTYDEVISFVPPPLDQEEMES
Serine/threonine-protein kinase PLK3 (Homo sapiens), sequence (Q9H4B4 whole entry, looked up): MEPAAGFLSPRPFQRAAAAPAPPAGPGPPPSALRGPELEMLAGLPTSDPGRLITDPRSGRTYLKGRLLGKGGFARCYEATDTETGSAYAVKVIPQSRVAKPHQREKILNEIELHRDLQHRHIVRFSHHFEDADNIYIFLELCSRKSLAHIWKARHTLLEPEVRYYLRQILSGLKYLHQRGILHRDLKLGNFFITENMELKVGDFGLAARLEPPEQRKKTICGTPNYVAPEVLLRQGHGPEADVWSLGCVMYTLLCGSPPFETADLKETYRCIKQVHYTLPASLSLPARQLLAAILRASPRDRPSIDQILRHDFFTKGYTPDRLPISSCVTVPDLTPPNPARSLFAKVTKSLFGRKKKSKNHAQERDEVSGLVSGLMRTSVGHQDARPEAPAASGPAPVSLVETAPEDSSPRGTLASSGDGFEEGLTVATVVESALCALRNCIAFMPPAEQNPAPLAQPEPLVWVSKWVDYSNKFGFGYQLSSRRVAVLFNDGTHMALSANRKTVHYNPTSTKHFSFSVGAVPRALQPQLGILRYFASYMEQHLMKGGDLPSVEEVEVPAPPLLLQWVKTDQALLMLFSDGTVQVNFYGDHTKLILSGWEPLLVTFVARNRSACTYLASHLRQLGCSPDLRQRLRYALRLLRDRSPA
Serine/threonine-protein kinase Sgk2 (Homo sapiens), sequence (Q9HBY8 whole entry, looked up): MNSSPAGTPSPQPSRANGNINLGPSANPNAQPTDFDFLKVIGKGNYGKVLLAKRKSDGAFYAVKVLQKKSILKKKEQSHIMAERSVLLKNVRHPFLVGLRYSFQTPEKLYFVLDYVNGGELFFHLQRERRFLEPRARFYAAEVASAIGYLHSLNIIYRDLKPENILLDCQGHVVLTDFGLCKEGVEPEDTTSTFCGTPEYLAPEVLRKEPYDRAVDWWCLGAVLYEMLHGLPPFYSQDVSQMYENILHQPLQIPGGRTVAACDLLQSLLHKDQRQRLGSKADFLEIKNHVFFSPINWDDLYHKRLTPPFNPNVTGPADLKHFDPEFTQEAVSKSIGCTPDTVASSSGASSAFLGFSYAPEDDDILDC
Cell division cycle 7-related protein kinase (Homo sapiens), sequence (O00311 whole entry, looked up): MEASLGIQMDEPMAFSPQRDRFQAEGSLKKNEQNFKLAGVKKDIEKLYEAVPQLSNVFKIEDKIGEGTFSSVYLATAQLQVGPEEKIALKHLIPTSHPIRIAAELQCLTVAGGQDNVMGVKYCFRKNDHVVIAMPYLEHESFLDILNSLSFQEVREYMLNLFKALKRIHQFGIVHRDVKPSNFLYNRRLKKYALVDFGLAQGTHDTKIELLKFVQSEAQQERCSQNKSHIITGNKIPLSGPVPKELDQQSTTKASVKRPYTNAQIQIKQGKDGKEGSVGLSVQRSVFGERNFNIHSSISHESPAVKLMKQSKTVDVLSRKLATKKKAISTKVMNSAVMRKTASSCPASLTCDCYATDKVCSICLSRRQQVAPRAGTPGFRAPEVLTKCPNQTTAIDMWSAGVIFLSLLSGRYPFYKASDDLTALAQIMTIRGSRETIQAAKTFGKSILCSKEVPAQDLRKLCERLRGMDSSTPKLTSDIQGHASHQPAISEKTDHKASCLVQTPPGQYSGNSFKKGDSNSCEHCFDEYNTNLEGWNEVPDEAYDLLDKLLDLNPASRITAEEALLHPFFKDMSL
Epidermal growth factor receptor (Homo sapiens), sequence (P00533 whole entry, looked up): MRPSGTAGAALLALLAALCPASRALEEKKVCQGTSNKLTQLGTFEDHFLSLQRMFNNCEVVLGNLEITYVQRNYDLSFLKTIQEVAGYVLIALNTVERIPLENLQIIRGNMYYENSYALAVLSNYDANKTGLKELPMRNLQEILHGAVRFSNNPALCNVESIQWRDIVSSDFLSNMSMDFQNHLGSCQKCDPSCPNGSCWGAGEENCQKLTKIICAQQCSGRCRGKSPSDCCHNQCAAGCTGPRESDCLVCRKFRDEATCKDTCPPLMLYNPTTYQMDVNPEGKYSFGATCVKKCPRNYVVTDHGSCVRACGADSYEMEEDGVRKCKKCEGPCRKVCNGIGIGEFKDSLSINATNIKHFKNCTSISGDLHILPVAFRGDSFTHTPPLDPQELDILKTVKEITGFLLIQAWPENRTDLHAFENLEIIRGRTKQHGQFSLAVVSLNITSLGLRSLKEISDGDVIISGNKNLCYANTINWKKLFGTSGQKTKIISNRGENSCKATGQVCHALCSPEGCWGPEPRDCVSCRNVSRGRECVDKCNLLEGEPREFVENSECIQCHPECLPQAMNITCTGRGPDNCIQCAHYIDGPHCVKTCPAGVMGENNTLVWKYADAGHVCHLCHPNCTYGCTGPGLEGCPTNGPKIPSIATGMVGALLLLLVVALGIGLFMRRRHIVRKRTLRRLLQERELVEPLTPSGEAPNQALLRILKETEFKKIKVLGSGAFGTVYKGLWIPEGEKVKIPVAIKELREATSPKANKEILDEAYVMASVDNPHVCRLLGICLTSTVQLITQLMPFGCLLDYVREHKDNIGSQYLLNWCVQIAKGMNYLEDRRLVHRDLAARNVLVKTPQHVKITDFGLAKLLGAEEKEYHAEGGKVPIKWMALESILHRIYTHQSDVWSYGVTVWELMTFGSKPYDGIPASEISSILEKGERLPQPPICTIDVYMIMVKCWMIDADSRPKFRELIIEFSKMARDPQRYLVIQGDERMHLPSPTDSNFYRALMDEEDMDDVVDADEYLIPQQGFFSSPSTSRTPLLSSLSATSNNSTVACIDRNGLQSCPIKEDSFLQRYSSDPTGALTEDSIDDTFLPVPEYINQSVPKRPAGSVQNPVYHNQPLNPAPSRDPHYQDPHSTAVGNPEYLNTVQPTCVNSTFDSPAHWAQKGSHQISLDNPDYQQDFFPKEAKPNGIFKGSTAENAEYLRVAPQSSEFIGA
Cyclin-dependent kinase 5 (Homo sapiens), sequence (Q00535 whole entry, looked up): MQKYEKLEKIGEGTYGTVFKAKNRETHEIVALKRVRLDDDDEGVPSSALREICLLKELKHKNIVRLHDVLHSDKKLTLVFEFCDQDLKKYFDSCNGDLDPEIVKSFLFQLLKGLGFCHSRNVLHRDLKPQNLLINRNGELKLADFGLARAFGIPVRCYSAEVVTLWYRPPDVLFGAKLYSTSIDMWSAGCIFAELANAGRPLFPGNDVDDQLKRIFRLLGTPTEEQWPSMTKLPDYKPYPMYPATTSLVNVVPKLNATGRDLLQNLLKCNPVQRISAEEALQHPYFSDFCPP

The Ki is the equilibrium dissociation constant of an inhibitor or competing ligand from its target. Consider `COc1cc2ncn(-c3cc(OCc4ccccc4C(F)(F)F)c(C(N)=O)s3)c2cc1OC`, for which the Ki is 251 nM in experiment [1], > 7940 nM (inactive) in experiment [2], 7.94 nM in experiment [3] and > 10000 nM (inactive) in experiment [4].
Take `O=C(O)c1ccccc1Nc1ncnc(Nc2ccc3cn[nH]c3c2)n1`: the Ki in experiment [5] is 316 nM; in experiment [6], 251 nM; in experiment [2] it was > 5010 nM (inactive).
On to `CC(C)(C)c1cc(NC(=O)c2cc3ccccc3s2)n(-c2cccc(OCC(=O)O)c2)n1`, for which the Ki in experiment [7] is 794 nM.
`CC(C)(C)c1cc(NC(=O)C(=O)c2cccc3ccccc23)n(-c2ccc(OCCC(N)=O)cc2)n1`: the inhibitory constant (Ki) in experiment [7] was 631 nM.
The same measure, in the same setting: for `Cc1cc(=O)[nH]nc1-c1ccc(NC(=O)Nc2cc(C(F)(F)F)ccc2F)c(Cl)c1` the value was 100 nM.
The same measure, in the same setting: for `CC(=O)n1ncc2cc(N)ccc21` the value was 7940 nM.
For the compound `CN(C)c1ccc(-c2c(-c3ccc4[nH]nc(N)c4c3)nnn2Cc2ccccc2)cc1`, the Ki in experiment [8] is 0.398 nM; in experiment [5], 126 nM; in experiment [2], 20 nM.
As for `CC(C)(C)c1cc(NC(=O)Nc2cccc3ccccc23)n(-c2cccc(C(=O)N(CCN)CCO)c2)n1`, the Ki in experiment [7] is 631 nM.
On the same count and under the same terms, for `CC(C)CC(NC(=O)c1cccc(-n2nc(C(C)(C)C)cc2NC(=O)Nc2cccc3ccccc23)c1)C(N)=O` (stereo not drawn) the value was 794 nM; for `NC(=O)c1ccc2nc(-c3ccc([N+](=O)[O-])o3)cn2c1`, 3160 nM; for `Cc1cc(=O)[nH]c2n[nH]c(-c3cccc(C(F)(F)F)c3)c12`, 398 nM.
